This note sets out measurements from patent US10350204B2, “Methods for treating cognitive deficits associated with fragile X syndrome” (Wisconsin Alumni Research Foundation, priority 2015, dated 2019).

Data set [1] has as its system Fmr1 KO and wildtype NPCs. Description: Western blot analyses of p-AKT, p-MDM2, MDM2 and P53 in NPCs. In kind it is cell-based, mouse. As to the method:
NPCs were isolated from the dentate gyms of 8 to 10-week-old male Fmr1 KO mice and wild-type (wildtype) littermate controls based on our published methods (12, 64). Independently isolated cells serve as biological replicates. Proliferation and differentiation of NPCs was analyzed as described (11, 12, 61). We used only early passage cells (between passage 4 and 10) and only the same passage numbers of wildtype and Fmr1 KO cells. For each experiment, triplicate wells of cells were analyzed, and results were averaged as one data point (n=1). At least 3 independent biological replicates were used (n=3) for statistical analyses.
Protein samples were separated on SDS-PAGE gels (Bio-Rad), transferred to PVDF membranes (Millipore), and incubated with primary antibodies. After incubation with fluorescence-labeled secondary antibodies (Li—CoR), the membranes were imaged using Li—CoR and quantification was performed using ImageJ software. At least n=3 independent blots were used for statistical analysis.
For loading controls, membranes were probed with the mouse antibody against GAPDH.

Data set [2] relates to Fmr1 KO and wildtype NPCs. Put plainly: Cell death analysis (PI/Hoechst, CellTiter-Glo viability) of NPCs. In kind it is cell-based, mouse. Conditions: 2 μM Nutlin-3. From the text:
Three different methods were used to assay cell death. Fluorescein isothiocyanate and propidium iodide (Annexin V-FITC Apoptosis Detection Kit, Sigma, #APOAF) were used to assess NSC apoptosis. Intact cells were Annexin V^−PI^−. Early and late apoptotic cells were Annexin V^+PI^− and Annexin V^+PI^+, respectively. Necrotic cells were Annexin V−PI+. The number of early apoptotic cells (Annexin V^+PI^−; Phase II) and late apoptotic cells (Annexin V^+PI^+, Phase I) were used to calculate the percentage of apoptotic cells. In a second method, propidium iodide (1 mg/mL) and […] (1 mM) were added to cultured cells for 15 min, followed by high content imaging analysis (Oppretta, GE) to quantify the percentage of Hoechst positive (all) cells that are PI positive (dead) cells. In the third method, Cell viability was measured using CellTiter-Glo Luminescent Cell Viability Assay (Promega). 2 μM Nutlin-3 (Nt3, Selleckchem, 51061) was added to proliferating aNPCs at 6 hours post-plating. Cells were then harvested 24 hours later with CellTiter-Glo buffer at room temperature. Signal intensity was immediately measured using a Glomax plate reader (Promega) according to manufacturer's instruction.
For orientation: Cellular ATP, detected with luciferase, serves as a proxy for viable cell number.

Data set [3] deals with NSCs of Fmr1 KO and wildtype mice. Description: In vivo NSC activation in the adult dentate gyrus (GFP+GFAP+MCM2+). Further details: species or system mouse. As to conditions: 10 mg/kg every other day, 5 injections over 9 days. The protocol:
All animal procedures were performed according to protocols approved by the University of Wisconsin-Madison Care and Use Committee. All mice were on C57B/L6 genetic background. The Fmr1 KO/Nestin-GFP mice (Fmr1−/y::Nestin-GFP) were created by crossing female Fmr1 heterozygous KO mice (Fmr1+/−) (59) with homozygous Nestin-GFP transgenic males (60). Generation of FMRP inducible conditional mutant mice (Fmr1loxP/y::Nestin-CreERT2::Rosa26-tdt) and tamoxifen injections to induce recombination were performed as described (12). To induce recombination, mice (6-weeks old) received Tamoxifen (Sigma-Aldrich) daily for 5 d (160 mg/kg) as described (12). Nutlin-3 (10 mg/kg) was given to 7-8 week-old mice or 20-week old mice through IP injections every other day for 5 injections and sacrificed at either 24 hours, 4 weeks, 12, or 20 weeks after the last injection. […]
The total numbers of GFP^+ or tdT^+ cells in the dentate gyms of each animal were counted on a Zeiss Apotome microscope using unbiased stereology (StereoInvestigator software, MBF Biosciences, Inc). […] Dentate gyms volume was measured using StereoInvestigator as described (11, 12). […] Briefly, at least 50 GFP^+ or BrdU^+ cells in the dentate gyms were randomly selected, and their colocalization with cell-lineage markers was determined using a Nikon A1 confocal microscope and quantified using ImageJ software (NIH).

A further data set deals with Fmr1 KO mice. Description: Novel object recognition (NOR) test. The data set is classed as in vivo, mouse. As to the method:
All animal procedures were performed according to protocols approved by the University of Wisconsin-Madison Care and Use Committee. All mice were on C57B/L6 genetic background. The Fmr1 KO/Nestin-GFP mice (Fmr1−/y::Nestin-GFP) were created by crossing female Fmr1 heterozygous KO mice (Fmr1+/−) (59) with homozygous Nestin-GFP transgenic males (60). Generation of FMRP inducible conditional mutant mice (Fmr1loxP/y::Nestin-CreERT2::Rosa26-tdt) and tamoxifen injections to induce recombination were performed as described (12). To induce recombination, mice (6-weeks old) received Tamoxifen (Sigma-Aldrich) daily for 5 d (160 mg/kg) as described (12). Nutlin-3 (10 mg/kg) was given to 7-8 week-old mice or 20-week old mice through IP injections every other day for 5 injections and sacrificed at either 24 hours, 4 weeks, 12, or 20 weeks after the last injection. For NSC differentiation analysis, mice also received four BrdU injections (100 mg/kg) between day 2 and 3 of Nutlin-3 injections. To induce recombination in FMRP inducible conditional mutant mice (Fmr1^loxP/y::Nestin-CreER^T2::Rosa26-tdt) mice, mice 6-weeks old male mice received Tamoxifen (Sigma-Aldrich) daily for 5 days (160 mg kg-1 i.p., 30 mg ml^−1 in 10% ethanol mixed with sunflower oil, SigmaAldrich) based on a published procedure (13). BrdU (Sigma-Aldrich, B5002) was made in a concentration of 20 mg/mL in PBS. Nutlin-3 (Nt3, Cayman Chemical, 10004372) was made in a concentration of 100 mg/mL in dimethyl sulfoxide (DMSO).
This test is based on the natural propensity of rodents to preferentially explore novel objects over familiar ones. The experimental procedure was performed as previously described (38). On the first day, mice were habituated for 10 min to the maze in which the task was performed. On the second day, mice were put back in the maze for 10 min, and two identical objects were presented. 24 hours later, one of the familiar objects was replaced with a novel object, and the mice were again placed in the maze and were allowed to explore for 10 min, and the total time spent exploring each of the two objects (novel and familiar) was measured. The discrimination index was calculated as the difference between the percentages of time spent investigating the novel object and the time spent investigating the familiar objects: discrimination index=(novel object exploration time/total exploration time×100)−(familiar object exploration time/total exploration time×100). All experiments were videotaped and scored by scientists who were blinded to experimental conditions.

For `COc1ccc(C2=N[C@@H](c3ccc(Cl)cc3)[C@@H](c3ccc(Cl)cc3)N2C(=O)N2CCNC(=O)C2)c(OC(C)C)c1` [Nutlin-3], the values for the P53 expression result in data set [1] (Fmr1 KO NPCs) and in data set [1] (wildtype NPCs) were “increased P53” and “no significant effect on wildtype cells”, respectively. The “p-MDM2 (Ser166)” value in data set [1] (Fmr1 KO NPCs) and in data set [1] (wildtype NPCs) was “did not affect p-MDM2 levels” each time. The “cell death and survival” value in data set [2] (Fmr1 KO NPCs) was “did not exhibit significant effects on cell death and survival”; in data set [2] (wildtype NPCs), “did not exhibit significant effects on cell death and survival”. Moreover, the results for the “NSC activation (percentage of activated NSCs among total NSCs)” value in data set [3] (Fmr1 KO mice) and in data set [3] (wildtype mice) were “specifically reduced NSC activation in Fmr1 KO mice to wildtype levels” and “no significant effect on wildtype mice”, respectively. In the data set with Fmr1 KO mice (Fmr1 KO mice treated at 8 weeks old, tested at 24 weeks old), the “cognitive deficits in the NOR test, long-term effect” value was “long-term effects to fully rescue cognitive deficits”. The “cognitive deficits in the NOR test” value with Fmr1 KO mice (Fmr1 KO mice treated at 20 weeks old (middle aged), 24-weeks-old at test) was “fully rescued cognitive deficits”. Moreover, the “performance on the novel object recognition test (discrimination index)” value is reported as “rescued performance” in the data set on Fmr1 KO mice (Fmr1 KO mice, treated as young adults, tested 4 weeks later) and “no significant effect on wildtype mice” in the data set with Fmr1 KO mice (wildtype mice, tested 4 weeks after treatment).
